Source: US20080207731A1, “3-(3-INDOLYL) PROPIONIC ACID CALCIUM SALT AND METHOD OF MAKING 3-(3-INDOLYL) PROPIONIC ACID FREE ACID THEREFROM” (Intellect Neurosciences, Inc., priority 2006, published 2008)
Where a name gives a salt, the structure may show the parent alone.

Tests used:
[1] = solubility in water of 3-IPA salts; type: physicochemical
cultured neurons = conditions: background statement; cited from earlier work

| solubility in water ([1]; compared to the calcium salts of other acids present in the reaction mixture (e.g., acrylic acid or acetic acid)) | solubility ([1]; compared to the free acid form of 3-IPA) | Structure (SMILES) | protection from toxicity of the Aβ peptide (cultured neurons) |
| --- | --- | --- | --- |
| much less soluble in water | low solubility | O=C(O)CCc1c[nH]c2ccccc12 [3-IPA calcium, calcium salt of 3-(3-indolyl)propionic acid] | – |
| – | – | O=C(O)CCc1c[nH]c2ccccc12 [3-IPA, 3-(3-indolyl)propionic acid] | protect cultured neurons from the toxicity of the Aβ peptide |
